In patent publication US20260226068A1, “IMIDAZOTRIAZINE IL-17A MODULATORS AND USES THEREOF” (DICE ALPHA, INC., priority 2023, published 2026):

Tests used:
IL-17A/A = molecular target: T1, IL-17A/A (Homo sapiens, UniProt Q16552); assay: IL-17A/A HEK-Blue cell assay (SEAP reporter); format: cell-based; details: HEK-Blue IL-17A reporter cells, IL17A/A 5 ng/mL, 20 hours, SEAP read at A630; read-out: HEK-Blue IL17AA (IC50 for IL-17A/A inhibition)
T1 construct: purchased Genscript Z03228
T1 sequence (Q16552 24-155): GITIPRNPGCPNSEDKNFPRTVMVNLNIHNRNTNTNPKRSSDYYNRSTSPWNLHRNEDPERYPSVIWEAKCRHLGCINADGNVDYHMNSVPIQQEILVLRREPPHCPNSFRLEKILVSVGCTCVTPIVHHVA

IL-17A/F = molecular target: T2, IL-17A/F (Homo sapiens, UniProt Q16552+Q96PD4); assay: IL-17A/F HEK-Blue cell assay (SEAP reporter); format: cell-based; details: HEK-Blue IL-17A reporter cells, IL17A/F 5 ng/mL, 20 hours, SEAP read at A630; read-out: HEK-Blue IL17AF (IC50 for IL-17A/F inhibition)
T2 construct: purchased R&D Systems
T2 sequence (Q16552 24-155): T1 sequence (Q16552 24-155)
T2 sequence (Q96PD4 31-163): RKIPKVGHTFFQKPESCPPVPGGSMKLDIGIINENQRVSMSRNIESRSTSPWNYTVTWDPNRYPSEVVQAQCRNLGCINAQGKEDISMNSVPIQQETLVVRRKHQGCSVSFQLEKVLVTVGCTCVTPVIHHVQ

Row | SMILES | IC50 (IL-17A/A) | IC50 (IL-17A/F)
1 | C=CCCc1nc2nc([C@@H](NC(=O)c3ccnn3CC)C3CCC(F)(F)CC3)cn2nc1C[C@H]1C[C@@H](C(F)(F)F)CNC1=O [Compound 215, N-((1S)-(3-(but-3-en-1-yl)-2-(((3R,5R)-2-oxo-5-(trifluoromethyl)piperidin-3-yl)methyl)imidazo[1,2-b][1,2,4]triazin-6-yl)(4,4-difluorocyclohexyl)methyl)-1-ethyl-1H-pyrazole-5-carboxamide] | < 100 nM | 100 to 1000 nM
2 | CCn1nccc1C(=O)N[C@H](c1cn2nc(C[C@H]3C[C@@H](C(F)(F)F)CNC3=O)c(C(C)(C)F)nc2n1)C1CCC(F)(F)CC1 [Compound 216, N-((1S)-(4,4-difluorocyclohexyl)(3-(2-fluoropropan-2-yl)-2-(((3R,5R)-2-oxo-5-(trifluoromethyl)piperidin-3-yl)methyl)imidazo[1,2-b][1,2,4]triazin-6-yl)methyl)-1-ethyl-1H-pyrazole-5-carboxamide] | < 100 nM | 100 to 1000 nM
3 | Cn1nccc1C(=O)N[C@H](c1cn2nc(C[C@H]3C[C@@H](C(F)(F)F)CNC3=O)c(C3CCOCC3)nc2n1)[C@H]1CC[C@H](C)CC1 [Compound 218, 1-methyl-N—((S)-((1r,4S)-4-methylcyclohexyl)(2-(((3R,5R)-2-oxo-5-(trifluoromethyl)piperidin-3-yl)methyl)-3-(tetrahydro-2H-pyran-4-yl)imidazo[1,2-b][1,2,4]triazin-6-yl)methyl)-1H-pyrazole-5-carboxamide] | < 100 nM | < 100 nM
4 | CCn1nccc1C(=O)N[C@H](c1cn2nc(C[C@H]3C[C@H](C)CNC3=O)c(C3CCOCC3)nc2n1)C1CCC(F)(F)CC1 [Compound 219] | < 100 nM | 100 to 1000 nM
5 | CCn1nccc1C(=O)N[C@H](c1cn2nc(C[C@@H]3C[C@H](C)CNC3=O)c(C3CCOCC3)nc2n1)C1CCC(F)(F)CC1 [Compound 220] | < 100 nM | 100 to 1000 nM
6 | CCc1nonc1C(=O)N[C@H](c1cn2nc(C[C@H]3C[C@@H](C(F)(F)F)CNC3=O)c(C3CCOCC3)nc2n1)C1CCCCC1 [Compound 221, N—((S)-cyclohexyl(2-(((3R,5R)-2-oxo-5-(trifluoromethyl)piperidin-3-yl)methyl)-3-(tetrahydro-2H-pyran-4-yl)imidazo[1,2-b][1,2,4]triazin-6-yl)methyl)-4-ethyl-1,2,5-oxadiazole-3-carboxamide] | < 100 nM | 100 to 1000 nM
7 | CCn1nccc1C(=O)N[C@H](c1cn2nc(C[C@@H]3CC(F)(F)CNC3=O)c(C3CCOCC3)nc2n1)C1CCC(F)(F)CC1 [Compound 222] | < 100 nM | > 1000 nM
8 | CCn1nccc1C(=O)N[C@H](c1cn2nc(C[C@@H]3CC(F)(F)CNC3=O)c(C3CCOCC3)nc2n1)[C@H]1CC[C@H](C)CC1 [Compound 223] | < 100 nM | 100 to 1000 nM

Continued, values first:

Row | IC50 (IL-17A/A) | IC50 (IL-17A/F) | SMILES
9 | < 100 nM | < 100 nM | CCn1nccc1C(=O)N[C@H](c1cn2nc(C[C@H]3C[C@@H](C(F)(F)F)CNC3=O)c(C3CCOCC3)nc2n1)C1CCCCC1 [Compound 196, N-((1S)-cyclohexyl(2-(((3R,5R)-2-oxo-5-(trifluoromethyl)piperidin-3-yl)methyl)-3-(tetrahydro-2H-pyran-4-yl)imidazo[1,2-b][1,2,4]triazin-6-yl)methyl)-1-ethyl-1H-pyrazole-5-carboxamide]
10 | < 100 nM | > 1000 nM | CCn1nccc1C(=O)N[C@H](c1cn2nc(C[C@H]3C[C@@H](C(F)(F)F)CNC3=O)c(C3CCOCC3)nc2n1)C1CC2(C1)CC(F)(F)C2 [Compound 197]
11 | < 100 nM | 100 to 1000 nM | CCn1nccc1C(=O)N[C@@H](c1cn2nc(C[C@H]3C[C@@H](C(F)(F)F)CNC3=O)c(C3CCOCC3)nc2n1)C1CC2CC2C1 (some centres unmarked) [Compound 198]
12 | < 100 nM | 100 to 1000 nM | CCn1nccc1C(=O)N[C@H](c1cn2nc(C[C@H]3C[C@@H](C(F)(F)F)CNC3=O)c(N3CCN(C)[C@@H](C)C3)nc2n1)C1CCC(F)(F)CC1 [Compound 200]
13 | < 100 nM | 100 to 1000 nM | CCn1nccc1C(=O)N[C@H](c1cn2nc(C[C@H]3C[C@@H](C(F)(F)F)CNC3=O)c(N[C@H]3CC[C@@H](OC)CC3)nc2n1)C1CCC(F)(F)CC1 [Compound 201]
14 | < 100 nM | < 100 nM | CCn1nccc1C(=O)N[C@H](c1cn2nc(C[C@H]3C[C@@H](C(F)(F)F)CNC3=O)c(C(C)C)nc2n1)[C@H]1CCCC(F)(F)C1 [Compound 205, N-((1S)—((S)-3,3-difluorocyclohexyl)(3-isopropyl-2-(((3R,5R)-2-oxo-5-(trifluoromethyl)piperidin-3-yl)methyl)imidazo[1,2-b][1,2,4]triazin-6-yl)methyl)-1-ethyl-1H-pyrazole-5-carboxamide]
15 | < 100 nM | 100 to 1000 nM | CCn1nccc1C(=O)N[C@H](c1cn2nc(C[C@H]3C[C@@H](C(F)(F)F)CNC3=O)c(C(C)C)nc2n1)[C@@H]1CCCC(F)(F)C1 [Compound 206, N-((1S)—((R)-3,3-difluorocyclohexyl)(3-isopropyl-2-(((3R,5R)-2-oxo-5-(trifluoromethyl)piperidin-3-yl)methyl)imidazo[1,2-b][1,2,4]triazin-6-yl)methyl)-1-ethyl-1H-pyrazole-5-carboxamide]
16 | < 100 nM | < 100 nM | CC(C)n1nccc1C(=O)N[C@H](c1cn2nc(C[C@H]3C[C@@H](C(F)(F)F)CNC3=O)c(C3CCOCC3)nc2n1)[C@H]1CCCC(F)(F)C1 [Compound 211, N-((1S)—((S)-3,3-difluorocyclohexyl)(2-(((3R,5R)-2-oxo-5-(trifluoromethyl)piperidin-3-yl)methyl)-3-(tetrahydro-2H-pyran-4-yl)imidazo[1,2-b][1,2,4]triazin-6-yl)methyl)-1-isopropyl-1H-pyrazole-5-carboxamide]
17 | < 100 nM | 100 to 1000 nM | CCn1nccc1C(=O)N[C@H](c1cn2nc(C[C@H]3C[C@@H](C(F)(F)F)CNC3=O)c(C3(F)CCOCC3)nc2n1)C1CCC(F)(F)CC1 [Compound 212, N-((1S)-(4,4-difluorocyclohexyl)(3-(4-fluorotetrahydro-2H-pyran-4-yl)-2-(((3R,5R)-2-oxo-5-(trifluoromethyl)piperidin-3-yl)methyl)imidazo[1,2-b][1,2,4]triazin-6-yl)methyl)-1-ethyl-1H-pyrazole-5-carboxamide]
18 | < 100 nM | 100 to 1000 nM | CCn1nccc1C(=O)N[C@H](c1cn2nc(C[C@H]3C[C@@H](C(F)(F)F)CNC3=O)c(CC3CCCOC3)nc2n1)C1CCC(F)(F)CC1 (stereo partly drawn) [Compound 213, N-((1S)-(4,4-difluorocyclohexyl)(2-(((3R,5R)-2-oxo-5-(trifluoromethyl)piperidin-3-yl)methyl)-3-((tetrahydro-2H-pyran-3-yl)methyl)imidazo[1,2-b][1,2,4]triazin-6-yl)methyl)-1-ethyl-1H-pyrazole-5-carboxamide]
19 | < 100 nM | 100 to 1000 nM | CCn1nccc1C(=O)N[C@H](c1cn2nc(C[C@H]3C[C@@H](C(F)(F)F)CNC3=O)c(C(C)C(F)(F)F)nc2n1)C1CCC(F)(F)CC1 (stereo partly drawn) [Compound 214, N-((1S)-(4,4-difluorocyclohexyl)(2-(((3R,5R)-2-oxo-5-(trifluoromethyl)piperidin-3-yl)methyl)-3-(1,1,1-trifluoropropan-2-yl)imidazo[1,2-b][1,2,4]triazin-6-yl)methyl)-1-ethyl-1H-pyrazole-5-carboxamide]
